Tests used:
Conditions in all cases: 48 h
SEM cells [1] = assay: AUC of viability dose-response curve (% viability x log10 dose units); higher = less sensitive
In short: (§1)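 Leukemia cells adapted to each medium (500 or 1000 cells/well, 1536-well plates) were exposed to library compounds in DMSO for 48 h at 37°C at 11 threefold doses, 47 μM to 0.79 nM. Luminescence by CellTiter-Glo One was normalised per plate to DMSO and cell-free wells, then fitted with a four-parameter log-logistic curve on log10 dose. Curves above full viability were scaled and quality-control failures removed before area under the curve was integrated by trapezoidal rule.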

P12-Ichikawa [2] = assay: as above
In short: as §1

NOMO1 [3] = assay: as above
In short: as §1

SEM cells [4] = assay: cell viability relative to DMSO control; higher = less cytotoxic
In short: (§2)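 Viability was expressed as a per-plate percentage of DMSO wells, with cell-free wells as background. Leukemia cells (NOMO1 or SEM at 500 cells/well, P12-Ichikawa at 1000 cells/well) were adapted for at least four passages in each medium and seeded in 1536-well plates (5 μl). Library compounds in DMSO were pin-dosed over an 11-point threefold series from 47 μM to 0.79 nM, and CellTiter-Glo One luminescence was read after 48 h at 37°C.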

P12-Ichikawa [5] = assay: as above
In short: as §2

NOMO1 [6] = assay: as above
In short: as §2

COc1cc(N2CCC(C(N)=O)CC2)ccc1Nc1nc(N)c(Cl)c(Nc2ccccc2[S+](=O)([O-])C(C)C)n1
AUC of viability dose-response curve
Conditions | NOMO1 [3] | P12-Ichikawa [2] | SEM cells [1]
HPLM + 10% dialyzed FBS | 381 | 445 | 360
RPMI 5 mM glucose + 10% FBS | 393 | 421 | 375
RPMI 5 mM glucose + 10% dialyzed FBS | 372 | 410 | 350

cell viability [%]
Conditions | NOMO1 [6] | P12-Ichikawa [5] | SEM cells [4]
HPLM + 10% dialyzed FBS, 0.000781 µM | 85.6 | 88.6 | 81.4
HPLM + 10% dialyzed FBS, 0.00234 µM | 79.1 | 97.4 | 83.3
HPLM + 10% dialyzed FBS, 0.00702 µM | 99.3 | 102 | 87.8
HPLM + 10% dialyzed FBS, 0.0211 µM | 98.3 | 95.2 | 96.1
HPLM + 10% dialyzed FBS, 0.0632 µM | 84.8 | 111 | 82.2
HPLM + 10% dialyzed FBS, 0.19 µM | 96.5 | 106 | 104
HPLM + 10% dialyzed FBS, 0.569 µM | 99.6 | 108 | 97.6
HPLM + 10% dialyzed FBS, 1.71 µM | 87.1 | 104 | 84.1
HPLM + 10% dialyzed FBS, 5.12 µM | 66 | 96.9 | 66.5
HPLM + 10% dialyzed FBS, 15.4 µM | 46.7 | 84.1 | 13.3
HPLM + 10% dialyzed FBS, 46.1 µM | 2.93 | 3.45 | 3.39
RPMI 5 mM glucose + 10% FBS, 0.000781 µM | 91.9 | 81.9 | 103
RPMI 5 mM glucose + 10% FBS, 0.00234 µM | 83.5 | 102 | 109
RPMI 5 mM glucose + 10% FBS, 0.00702 µM | 94 | 101 | 107
RPMI 5 mM glucose + 10% FBS, 0.0211 µM | 89.9 | 107 | 104
RPMI 5 mM glucose + 10% FBS, 0.0632 µM | 89 | 103 | 97.6
RPMI 5 mM glucose + 10% FBS, 0.19 µM | 96.4 | 98.1 | 108
RPMI 5 mM glucose + 10% FBS, 0.569 µM | 92 | 99.9 | 120
RPMI 5 mM glucose + 10% FBS, 1.71 µM | 91.2 | 95.9 | 92.9
RPMI 5 mM glucose + 10% FBS, 5.12 µM | 75.5 | 77.8 | 43
RPMI 5 mM glucose + 10% FBS, 15.4 µM | 65.9 | 64.6 | 6.28
RPMI 5 mM glucose + 10% FBS, 46.1 µM | 2.25 | 2.33 | 3.46
RPMI 5 mM glucose + 10% dialyzed FBS, 0.000781 µM | 83.9 | 91.3 | 74.8
RPMI 5 mM glucose + 10% dialyzed FBS, 0.00234 µM | 94.2 | 104 | 85.1
RPMI 5 mM glucose + 10% dialyzed FBS, 0.00702 µM | 90.9 | 98.8 | 94.3
RPMI 5 mM glucose + 10% dialyzed FBS, 0.0211 µM | 80.1 | 94.7 | 76.9
RPMI 5 mM glucose + 10% dialyzed FBS, 0.0632 µM | 96.4 | 103 | 88.5
RPMI 5 mM glucose + 10% dialyzed FBS, 0.19 µM | 93.8 | 97.9 | 88.8
RPMI 5 mM glucose + 10% dialyzed FBS, 0.569 µM | 89.6 | 100 | 99.4
RPMI 5 mM glucose + 10% dialyzed FBS, 1.71 µM | 80.4 | 88 | 86
RPMI 5 mM glucose + 10% dialyzed FBS, 5.12 µM | 60.7 | 74.9 | 69
RPMI 5 mM glucose + 10% dialyzed FBS, 15.4 µM | 54.1 | 54.9 | 13.2
RPMI 5 mM glucose + 10% dialyzed FBS, 46.1 µM | 4.26 | 4.65 | 2.73
